Where a name gives a salt, the structure may show the parent alone. Read-outs that look alike come from different tables or passages of the source.
Assays:
primary rat microglia [1] = tested on: primary rat microglia
primary rat microglia [2] = assay: Cell toxicity (dead cells, size <150 μm2) in coated fibrin (cFib) assay; details: primary microglia HTS;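 further: share of dead cells sized under 150 µm2 at 10 µM in fibrin-stimulated microglia HTS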
[3] = tested on: LPS-induced microglia activation; assay: Image-based assay of LPS-induced microglia activation (HTS and dose response); format: cell-based, rat; details: for inhibition at 10 µM: Rattus norvegicus, Microglia, read-out: LPS % inhibition
[4] = tested on: fibrin-induced microglia activation; assay: Image-based assay of fibrin-induced microglia activation (HTS and dose response); format: cell-based, rat; details: primary microglia HTS, fibrin stimulation; for inhibition at 10 µM: Rattus norvegicus, Microglia, read-out: Fibrin % inhibition
[5] = tested on: fibrin- and LPS-induced microglia activation; assay: cells; format: cell-based, rat
[6] = fibrin assay, dead cells (size <150 μm2)
[7] = primary microglia HTS, LPS stimulation, compounds at 10 μM
[8] = quadrant by fibrin and LPS inhibition, HTS at 10 μM
[9] = fibrin stimulation, cell size <150 μm2 as marker of toxicity
[10] = cell size >800 μm2 as marker of activation
[11] = classification by fibrin and LPS inhibition in HTS
[12] = fibrin assay, dead cells (size <150 μm2), compounds at 10 μM
[13] = classification by fibrin and LPS inhibition, HTS at 10 μM

| SMILES | LPS % cell toxicity (primary rat microglia [1]) | Fibrin % cell toxicity (primary rat microglia [2]; [6]) | Quadrant (FIG. 5b) [5, 8] | LPS % cell toxicity (primary rat microglia [1]; rat) | Fibrin % cell toxicity (primary rat microglia [2]; [9]) | Quadrant (FIG. 5b) [5, 11] | inhibition at 10 µM [3, 7] | inhibition at 10 µM ([4]; compounds at 10 μM) | Fibrin % cell toxicity (primary rat microglia [2]; [12]) | Quadrant (FIG. 5b) [5, 13] | other results |
| --- | --- | --- | --- | --- | --- | --- | --- | --- | --- | --- | --- |
| NC(Cc1ccc(Cl)cc1)C(=O)O (racemic) [(±)-p-chlorophenylalanine, Fenclonine] | 0% | 1% | Q4 |  |  |  |  |  |  |  | LPS % inhibition [3, 7]: 5%; Fibrin % inhibition ([4]; compounds at 10 μM): 16% |
| C=CC(N)CCC(=O)O (racemic) [(±)-gamma-vinyl Gaba, Vigabatrin] | 0% | 1% | Q4 |  |  |  |  |  |  |  | LPS % inhibition [3, 7]: 12%; Fibrin % inhibition ([4]; compounds at 10 μM): 8% |
| CC(=O)NS(=O)(=O)c1ccc(NC(=O)c2ccccc2C(=O)O)cc1 [Phthalylsulfacetamide] |  |  |  | 0% | 1% | Q4 |  |  |  |  | inhibition at 10 µM ([3]; 48 h): -1%; inhibition at 10 µM [4, 10]: 1% |
| CCC(C)(C)c1ccc(CC(C)CN2C[C@@H](C)O[C@@H](C)C2)cc1 (some centres unmarked) [Amorolfine] |  | 1% | Q4 | 0% |  |  | 22% | 6% |  |  |  |
| O=C1CC[C@@H](C(=O)O)N1 [Pidolic Acid] |  |  |  | 0% | 1% | Q4 |  |  |  |  | inhibition at 10 µM ([3]; 48 h): 15%; inhibition at 10 µM [4, 10]: -57% |
| O=C1OC(c2ccc(O)cc2)(c2ccc(O)cc2)c2ccccc21 [Phenolphthalein] |  |  |  | 0% | 1% | Q4 |  |  |  |  | inhibition at 10 µM ([3]; 48 h): 13%; inhibition at 10 µM [4, 10]: 10% |
| NC[C@H]1O[C@H](O[C@H]2[C@H](O)[C@@H](O[C@H]3O[C@H](CO)[C@@H](O)[C@H](N)[C@H]3O)[C@H](N)C[C@@H]2N)[C@H](N)[C@@H](O)[C@@H]1O.O=S(=O)(O)O [Becanamycin Sulfate, Bekanamycin Sulfate] | 0% | 1% | Q4 |  |  |  |  |  |  |  | LPS % inhibition [3, 7]: 16%; Fibrin % inhibition ([4]; compounds at 10 μM): −10% |
| CCCCCCOC(=O)NC(=N)c1ccc(NCc2nc3cc(C(=O)N(CCC(=O)OCC)c4ccccn4)ccc3n2C)cc1 [Dabigatran etexilate] |  |  |  | 0% |  |  | 9% | 3% | 0% | Q4 |  |
| CC(=O)N[C@@H](CC(C)C)C(=O)O [Acetyl-l-leucine] |  | 5% | Q4 | 3% |  |  | 45% | -10% |  |  |  |
| CCN(CC)C(=O)c1cccc(C)c1 [Deet, Diethyltoluamide] | 0% |  |  |  |  |  |  |  | 0% | Q4 | LPS % inhibition [3, 7]: 6%; Fibrin % inhibition ([4]; compounds at 10 μM): −38% |
| CN1C(C)(C)CCCC1(C)C [Pempidine Tartrate] |  |  |  | 0% | 1% | Q4 |  |  |  |  | inhibition at 10 µM ([3]; 48 h): 13%; inhibition at 10 µM [4, 10]: -19% |
| CCN[C@@H](C)Cc1cccc(C(F)(F)F)c1 [Dexfenfluramine] |  |  |  | 0% |  |  | 5% | -15% | 1% | Q4 |  |
| CC1CC(OC(=O)C(O)c2ccccc2)CC(C)(C)C1 (centres unmarked) [Cyclandelate] |  |  |  | 0% |  |  | 4% | -57% | 0% | Q4 |  |
| CCCc1cc(C(N)=S)ccn1 [Protionamide, Ektebin] | 0% |  |  |  | 1% | Q4 |  |  |  |  | LPS % inhibition [3]: 12%; Fibrin % inhibition [4, 10]: −18% |
| C1CCc2nnnn2CC1 [Pentetrazole, Pentylenetetrazol] | 1% |  |  |  | 1% | Q4 |  |  |  |  | LPS % inhibition [3]: 18%; Fibrin % inhibition [4, 10]: −12% |
| Nc1ncnc2c1ncn2[C@@H]1O[C@H](COP(=O)(O)O)[C@@H](O)[C@H]1O [Adenosine monophosphate] |  | 1% | Q4 | 0% |  |  |  |  |  |  | LPS % inhibition ([3]; primary microglia HTS, LPS stimulation, compounds at 10 μM, 10 µM): 4%; Fibrin % inhibition ([4]; compounds at 10 μM, 10 µM): −30% |
| CC(C)NC(=N)NC(=N)Nc1ccc(Cl)cc1 [Proguanil; Chlorguanide Hydrochloride] | 1% |  |  |  | 0% | Q4 |  |  |  |  | LPS % inhibition [3]: 20%; Fibrin % inhibition [4, 10]: −7% |
| C[C@]12CC[C@H]3C(=CCc4cc(O)ccc43)[C@@H]1CCC2=O [Equilin] |  |  |  | 0% |  |  | 15% | 1% | 0% | Q4 |  |
| CCCN(CCC)C(=O)C(CCC(=O)O)NC(=O)c1ccccc1 (centres unmarked) [Proglumide] |  |  |  | 0% | 1% | Q4 |  |  |  |  | inhibition at 10 µM ([3]; 48 h): -1%; inhibition at 10 µM [4, 10]: -4% |
| CC(=O)Oc1cccc(C(=O)O)c1OC(C)=O [Dipyrocetyl] |  |  |  | 0% |  |  | 7% | -1% | 1% | Q4 |  |
| NNC(=O)c1ccncc1.Nc1ccc(C(=O)O)c(O)c1 [Pasiniazid] | 0% |  |  |  | 1% | Q4 |  |  |  |  | LPS % inhibition [3]: 17%; Fibrin % inhibition [4, 10]: −61% |
| CCOC(=O)OC(C)OC(=O)[C@@H]1N2C(=O)[C@@H](NC(=O)[C@H](N)c3ccccc3)[C@H]2SC1(C)C (some centres unmarked) [Bacampicillin Hydrochloride] |  | 1% | Q4 | 0% |  |  | 8% | -12% |  |  |  |
| C/C=C(/C(=C/C)c1ccc(O)cc1)c1ccc(O)cc1 [Dienestrol] |  |  |  | 0% |  |  | 21% | 17% | 1% | Q4 |  |
| N[C@@H]1CON=C1O [Cycloserine] |  |  |  | 0% |  |  | 19% | -4% | 0% | Q4 |  |
| NS(=O)(=O)c1cc2c(cc1C(F)(F)F)NC(Cc1ccccc1)NS2(=O)=O (centres unmarked) [Bendrofumethiazide, Bendroflumethiazide] | 1% | 1% | Q4 |  |  |  |  |  |  |  | LPS % inhibition [3, 7]: 12%; Fibrin % inhibition ([4]; compounds at 10 μM): −15% |
| COc1ccc(C(=O)CC(=O)c2ccc(C(C)(C)C)cc2)cc1 [Avobenzone] |  | 1% | Q4 | 0% |  |  | 20% | 22% |  |  |  |
| CN(C(=O)C(Cl)Cl)c1ccc(OC(=O)c2ccco2)cc1 [Diloxanide Furoate] |  |  |  | 0% |  |  | 17% | -3% | 1% | Q4 |  |
| CC(C)(Sc1cc(C(C)(C)C)c(O)c(C(C)(C)C)c1)Sc1cc(C(C)(C)C)c(O)c(C(C)(C)C)c1 [Probucol] |  |  |  | 0% | 0% | Q4 |  |  |  |  | inhibition at 10 µM ([3]; 48 h): -1%; inhibition at 10 µM [4, 10]: 12% |
